Laboratory results from ChEMBL document CHEMBL1148791, “High-throughput screening of drug-brain tissue binding and in silico prediction for assessment of central nervous system drug delivery” (J Med Chem, 2007).

How the values were obtained:
[1] = physchem
Description: Acid dissociation constant, pKa of the compound

[2] = physchem; details: buffer, pH 7.4
[3] = buffer, pH 7.4
[4] = Fraction unbound ligand in rat adrenal gland after 20 hrs; format: ADME, tissue-based; details: adrenal gland tissue
[5] = Fraction unbound ligand in rat brain after 20 hrs; format: ADME, tissue-based; details: brain tissue
[6] = Fraction unbound ligand in rat lung after 20 hrs; format: ADME, tissue-based; details: lung tissue
[7] = Fraction unbound ligand in rat brown fat tissue after 20 hrs; format: ADME, tissue-based, Adipose tissue

SMILES | pKa [1] | logD [2] | also measured
O=C1CC2(CCCC2)CC(=O)N1CCCCN1CCN(c2ncccn2)CC1 [BUSPIRONE] | 7.8 | – | –
NC(=O)N1c2ccccc2C=Cc2ccccc21 [CARBAMAZEPINE] | – | 1.77 | –
CCCC(C)(COC(N)=O)COC(=O)NC(C)C (stereo unspecified) [CARISOPRODOL] | – | 2.4 | –
CN(C)CCCN1c2ccccc2Sc2ccc(Cl)cc21 [CHLORPROMAZINE] | – | 3.7 | –
CN1CCN(C2=Nc3cc(Cl)ccc3Nc3ccccc32)CC1 [CLOZAPINE] | – | 3.46 | –
CN(C)CCC=C1c2ccccc2C=Cc2ccccc21 [CYCLOBENZAPRINE] | 9.69 | 2.92 | –
COCCCC/C(=N\OCCN)c1ccc(C(F)(F)F)cc1 [FLUVOXAMINE] | 9.4 | – | –
O=C(CCCN1CCC(O)(c2ccc(Cl)cc2)CC1)c1ccc(F)cc1 [HALOPERIDOL] | – | 0.18 | –
COc1ccc2c3c1O[C@H]1C(=O)CC[C@H]4[C@@H](C2)N(C)CC[C@]314 [HYDROCODONE] | 8.43 | 3.38 | –
OCCOCCN1CCN(C(c2ccccc2)c2ccc(Cl)cc2)CC1 (stereo unspecified) [HYDROXYZINE] | 7.75 | – | Log D [3]: 0.18
COC(=O)[C@H](c1ccccc1)C1CCCCN1 (stereo partly specified) [METHYLPHENIDATE] | 9.24 | -0.15 | –
Cc1ncc2n1-c1ccc(Cl)cc1C(c1ccccc1F)=NC2 [MIDAZOLAM] | 5.44 | 2.5 | –
CNCCC=C1c2ccccc2CCc2ccccc21 [NORTRIPTYLINE] | 10.4 | 2.23 | –
Fc1ccc([C@@H]2CCNC[C@H]2COc2ccc3c(c2)OCO3)cc1 [PAROXETINE] | 10.1 | 2.27 | –
CC(C)NCC(O)COc1cccc2ccccc12 (stereo unspecified) [PROPRANOLOL] | – | – | fraction unbound at 20 h [4]: 0.01; fraction unbound at 20 h [5]: 0.021; fraction unbound at 20 h [6]: 0.053; fraction unbound at 20 h [7]: 0.097
Cc1nc2n(c(=O)c1CCN1CCC(c3noc4cc(F)ccc34)CC1)CCCC2 [RISPERIDONE] | – | 1.66 | –
O=c1n(CCCN2CCN(c3cccc(Cl)c3)CC2)nc2ccccn12 [TRAZODONE] | 6.73 | 2.97 | –
COc1ccc(C(CN(C)C)C2(O)CCCCC2)cc1 (stereo unspecified) [VENLAFAXINE] | – | 0.88 | –
Cc1ccc(-c2nc3ccc(C)cn3c2CC(=O)N(C)C)cc1 [ZOLPIDEM] | 6.02 | 2.35 | –
